Patent EP0500835B1, “A NOVEL QUINOLONE CARBOXYLIC ACID DERIVATIVE” (DAEWOONG PHARMACEUTICAL CO., LTD., priority 1990, dated 1992)

Tests used:
[1] = tested on: Staphylococcus aureus 208E; test: Antibacterial activity for MRSA; type: cell-based; conditions: Staphylococcus aureus 208E (MRSA)
Protocol: (§1) The compound of example 2 was orally administered to determine the LD50 for a group of male mice. […] The antibacterial activity for MRSA(Methicillin Resistant Staphyloccocus Aureus) was tested by the compound of example 2.

[2] = tested on: Staphylococcus aureus 121E; test: Antibacterial activity for MRSA; type: cell-based; conditions: Staphylococcus aureus 121E (MRSA)
Protocol: as §1

[3] = tested on: Staphylococcus aureus 703E; test: Antibacterial activity for MRSA; type: cell-based; conditions: Staphylococcus aureus 703E (MRSA)
Protocol: as §1

[4] = tested on: Saphylococcus aureus 692E; test: Antibacterial activity for MRSA; type: cell-based; conditions: Saphylococcus aureus 692E (MRSA)
Protocol: as §1

[5] = tested on: Staphylococcus aureus 256E; test: Antibacterial activity for MRSA; type: cell-based; conditions: Staphylococcus aureus 256E (MRSA)
Protocol: as §1

[6] = tested on: Staphylococcus aureus 695E; test: Antibacterial activity for MRSA; type: cell-based; conditions: Staphylococcus aureus 695E (MRSA)
Protocol: as §1

[7] = tested on: Staphylococcus aureus 708E; test: Antibacterial activity for MRSA; type: cell-based; conditions: Staphylococcus aureus 708E (MRSA)
Protocol: as §1

[8] = tested on: Staphylococcus aureus 705E; test: Antibacterial activity for MRSA; type: cell-based; conditions: Staphylococcus aureus 705E (MRSA)
Protocol: as §1

[9] = tested on: Staphylococcus aureus 88 E; test: Antibacterial activity for MRSA; type: cell-based; conditions: Staphylococcus aureus 88 E (MRSA)
Protocol: as §1

[10] = tested on: Staphylococcus aureus 694E; test: Antibacterial activity for MRSA; type: cell-based; conditions: Staphylococcus aureus 694E (MRSA)
Protocol: as §1

[11] = tested on: Staphylococcus aureus 706E; test: Antibacterial activity for MRSA; type: cell-based; conditions: Staphylococcus aureus 706E (MRSA)
Protocol: as §1

[12] = tested on: Staphylococcus aureus 711E; test: Antibacterial activity for MRSA; type: cell-based; conditions: Staphylococcus aureus 711E (MRSA)
Protocol: as §1

[13] = tested on: Staphylococcus aureus 690E; test: Antibacterial activity for MRSA; type: cell-based; conditions: Staphylococcus aureus 690E (MRSA)
Protocol: as §1

[14] = tested on: Staphylococcus aureus 752E; test: Antibacterial activity for MRSA; type: cell-based; conditions: Staphylococcus aureus 752E (MRSA)
Protocol: as §1

[15] = tested on: Staphylococcus aureus 707E; test: Antibacterial activity for MRSA; type: cell-based; conditions: Staphylococcus aureus 707E (MRSA)
Protocol: as §1

[16] = tested on: Staphylococcus aureus 714E; test: Antibacterial activity for MRSA; type: cell-based; conditions: Staphylococcus aureus 714E (MRSA)
Protocol: as §1

[17] = tested on: Staphylococcus aureus 693E; test: Antibacterial activity for MRSA; type: cell-based; conditions: Staphylococcus aureus 693E (MRSA)
Protocol: as §1

[18] = tested on: Staphylococcus aureus 697E; test: Antibacterial activity for MRSA; type: cell-based; conditions: Staphylococcus aureus 697E (MRSA)
Protocol: as §1

[19] = tested on: Staphylococcus aureus 701E; test: Antibacterial activity for MRSA; type: cell-based; conditions: Staphylococcus aureus 701E (MRSA)
Protocol: as §1

K. aerogenes 1522E = test: In vitro antibacterial activity, MIC by agar dilution method; type: cell-based; conditions: Klebsiella aerogenes; K. aerogenes 1522E; agar dilution method; read-out: In vitro Antibacterial Activity, MIC
Protocol: (§2) The typical examples of the present compounds were tested for antimicrobial activity in vitro against twenty strains of Gram-positive and Gram-negative microorganisms.
(§3) The minimum inhibitory concentrations were determined according to the agar dilution method recommended by Japan Society of Chemotherapy[Chemotherapy., 29, 76 (1981)].

E. coli O 55 = test: as above; type: cell-based; conditions: Escherichia coli, O55; E. coli O 55; agar dilution method; read-out: In vitro Antibacterial Activity, MIC
Protocol: as §2, §3

E. cloacae P99 = test: as above; type: cell-based; conditions: Enterobacter cloacae; E. cloacae P99; agar dilution method; read-out: In vitro Antibacterial Activity, MIC
Protocol: as §2, §3

E. cloacae 1321E = test: as above; type: cell-based; conditions: Enterobacter cloacae; E. cloacae 1321E; agar dilution method; read-out: In vitro Antibacterial Activity, MIC
Protocol: as §2, §3

S. typhimurium = test: as above; type: cell-based; conditions: Salmonella enterica; S. typhimurium; agar dilution method; read-out: In vitro Antibacterial Activity, MIC
Protocol: as §2, §3

Oral LD50 in male mice = conditions: mouse, in vivo, orally administered
Protocol: as §1

E. coli DC 2 = test: In vitro antibacterial activity, MIC by agar dilution method; type: cell-based; conditions: Escherichia coli, DC2, read-out: In vitro Antibacterial Activity, MIC
Protocol: as §2
(§4) The numerals in the table 1 show minimum inhibitory concentrations(MIC in µg/ml). The minimum inhibitory concentrations were determined according to the agar dilution method recommended by Japan Society of Chemotherapy[Chemotherapy., 29, 76 (1981)].

S. aureus SG 511 = test: as above; type: cell-based; conditions: Staphylococcus aureus, SG511; S. aureus SG 511; agar dilution method; read-out: In vitro Antibacterial Activity, MIC
Protocol: as §2, §4

K. oxytoca 1082E = test: as above; type: cell-based; conditions: Klebsiella oxytoca; K. oxytoca 1082E; agar dilution method; read-out: In vitro Antibacterial Activity, MIC
Protocol: as §2, §4

S. pyogenes A 77 = test: as above; type: cell-based; conditions: Streptococcus pyogenes, A77; S. pyogenes A 77; agar dilution method; read-out: In vitro Antibacterial Activity, MIC
Protocol: as §2, §4

S. aureus 285 = test: as above; type: cell-based; conditions: Staphylococcus aureus; S. aureus 285; agar dilution method; read-out: In vitro Antibacterial Activity, MIC
Protocol: as §2, §4

P. aeruginosa 1592E = test: as above; type: cell-based; conditions: Pseudomonas aeruginosa; P. aeruginosa 1592E; agar dilution method; read-out: In vitro Antibacterial Activity, MIC
Protocol: as §2, §4

S. aureus 503 = test: as above; type: cell-based; conditions: Staphylococcus aureus; S. aureus 503; agar dilution method; read-out: In vitro Antibacterial Activity, MIC
Protocol: as §2, §4

P. aeruginosa 9027 = test: as above; type: cell-based; conditions: Pseudomonas aeruginosa; P. aeruginosa 9027; agar dilution method; read-out: In vitro Antibacterial Activity, MIC
Protocol: as §2, §4

E. coli TEM = test: as above; type: cell-based; conditions: Escherichia coli; E. coli TEM; agar dilution method; read-out: In vitro Antibacterial Activity, MIC
Protocol: as §2, §4

E. coli DC 0 = test: as above; type: cell-based; conditions: Escherichia coli, DC0, read-out: In vitro Antibacterial Activity, MIC
Protocol: as §2, §4

S. faecium MD 86 = test: as above; type: cell-based; conditions: Enterococcus faecium, MD86; S. faecium MD 86; agar dilution method; read-out: In vitro Antibacterial Activity, MIC
Protocol: as §2, §4

S. pyogenes A 308 = test: as above; type: cell-based; conditions: Streptococcus pyogenes, A308; S. pyogenes A 308; agar dilution method; read-out: In vitro Antibacterial Activity, MIC
Protocol: as §2, §4

E. coli 1507E = test: as above; type: cell-based; conditions: Escherichia coli; E. coli 1507E; agar dilution method; read-out: In vitro Antibacterial Activity, MIC
Protocol: as §2, §4

P. aeruginosa 1771M = test: as above; type: cell-based; conditions: Pseudomonas aeruginosa; P. aeruginosa 1771M; agar dilution method; read-out: In vitro Antibacterial Activity, MIC
Protocol: as §2, §4

P. aeruginosa 1771 = test: as above; type: cell-based; conditions: Pseudomonas aeruginosa; P. aeruginosa 1771; agar dilution method; read-out: In vitro Antibacterial Activity, MIC
Protocol: as §2, §4

CSCC1CCN(c2c(F)cc3c(=O)c(C(=O)O)cn(C4CC4)c3c2F)C1 (stereo not shown) [Example 2, 1-cyclopropyl-6,8-difluoro-7-(3-methylthiomethylpyrrolidinyl)-1,4-dihydro-4-oxo-3-quinolinecarboxylic acid]
> 3000 mg/kg: LD50 (Oral LD50 in male mice)
0.007 µg/mL: Antibacterial Activity for MRSA [3] | Antibacterial Activity for MRSA [7] | Antibacterial Activity for MRSA [15] | Antibacterial Activity for MRSA [16] | Antibacterial Activity for MRSA [17] | MIC (K. oxytoca 1082E)
0.049 µg/mL: MIC (S. typhimurium)
0.098 µg/mL: MIC (K. aerogenes 1522E) | MIC (E. cloacae P99) | MIC (S. pyogenes A 77) | MIC (P. aeruginosa 1771M)
0.781 µg/mL: MIC (E. coli DC 2) | MIC (P. aeruginosa 1592E) | MIC (P. aeruginosa 9027) | MIC (E. coli DC 0)
0.025 µg/mL: Antibacterial Activity for MRSA [1] | MIC (E. cloacae 1321E)
0.195 µg/mL: MIC (S. faecium MD 86) | MIC (S. pyogenes A 308)
0.391 µg/mL: MIC (E. coli TEM) | MIC (E. coli 1507E) | MIC (P. aeruginosa 1771)
0.004 µg/mL: Antibacterial Activity for MRSA [4] | Antibacterial Activity for MRSA [9] | Antibacterial Activity for MRSA [13]
0.013 µg/mL: Antibacterial Activity for MRSA [2] | Antibacterial Activity for MRSA [5] | Antibacterial Activity for MRSA [6] | Antibacterial Activity for MRSA [8] | Antibacterial Activity for MRSA [10] | Antibacterial Activity for MRSA [11] | Antibacterial Activity for MRSA [12] | Antibacterial Activity for MRSA [14] | Antibacterial Activity for MRSA [18] | Antibacterial Activity for MRSA [19] | MIC (E. coli O 55)
0.002 µg/mL: MIC (S. aureus SG 511) | MIC (S. aureus 285) | MIC (S. aureus 503)
